# System: 4T-1 cells of mammary cancer
# Assay: Orthotopic 4T1 breast cancer model, lung metastases
# Assay type: in vivo, BALB/c mice
# Conditions: after 3 weeks
# From the text: The objective of this study was to evaluate the capacity of a suspension of liposomal MTP-PE, prepared according to the invention and administered orally, to inhibit the development of pulmonary metastases from cancer of the mammary gland.
# The experimental model consisted of using immunocompetent mice of the BALB/c strain and performing an orthotopic transplant of 4T-1 cells of mammary cancer of murine origin.
# This orthotopic graft forms a tumor reproducing human breast cancer which disseminates and forms metastases in the lungs after 3 weeks.
# Suspensions of liposomes were prepared according to the method indicated in example 1.
# 4T1 tumors were induced on day zero (DO) orthotopically in 60 BALB/c female mice under anesthesia.
# A total of 300,000 4T1 tumor cells were slowly injected into the right thoracic breast tissue.
# Animals were randomized by tumor size on Day 9 into six groups of ten animals each […]. Homogeneity of tumor sizes between groups was tested by analysis of variance (ANOVA).
# The animals of Groups 1, 2 and 3 were treated respectively with Batch H3 (control), Batch G3 and Batch G3 twice a week orally.
# Additionally, animals in Groups 2 and 4 were treated with intravenous injections of doxorubicin at 8 mg/kg once weekly for 3 weeks. […] The number of lung metastases was counted using a binocular loupe.
compound,measurement,value
COc1cccc2c1C(=O)c1c(O)c3c(c(O)c1C2=O)C[C@@](O)(C(=O)CO)C[C@@H]3O[C@H]1C[C@H](N)[C@H](O)[C@H](C)O1 [doxorubicin],Effect on lung metastases (in words),did not show significant efficacy

# Reference: US20240108685A1, “ORAL LIPOSOMAL COMPOSITIONS” (priority 2021, published 2024)
